Common to all, as to format: cell-based
Assay [1] relates to BaF3_HER2YVMA cells. In words: Cell growth inhibition assay, BaF3_HER2YVMA. Particulars: 72 h, read-out: HER2-YVMA IC50 (nM), cell growth inhibition.
In assay [2] the test system is BaF3_HER2WT cells. Briefly: Cell growth inhibition assay, BaF3_HER2WT. Particulars: 72 h, 3 days treatment, CellTiterGlo 2.0, read-out: HER2 WT IC50 (nM), cell growth inhibition. In general terms: ATP-based viability assays read luminescence as a measure of living cells.
The test system of assay [3] is BaF3_EGFRWT cells. Briefly: Cell growth inhibition assay, BaF3_EGFRWT. Particulars: 72 h, 80 ng/mL recombinant human EGF, 3 days treatment, CellTiterGlo 2.0, read-out: EGFR WT IC50 (nM), cell growth inhibition.
Where [4] appears, read: BaF3_HER2YVMA cells, 3 days treatment, CellTiterGlo 2.0.

For orientation: IC50 means the concentration that gives 50% inhibition.

Where two headings read alike, the source gives them in different places.

For the compound `C=CC(=O)N1CC(c2ccn3ncnc(Nc4ccc(Oc5ccn6ncnc6c5)c(C)c4)c23)C1` [Example 3, 1-(3-(4-((4-([1,2,4]triazolo[1,5-a]pyridin-7-yloxy)-3-methylphenyl)amino)pyrrolo[2,1-f][1,2,4]triazin-5-yl)azetidin-1-yl)prop-2-en-1-one], the IC50 is under 200 nM in assay [1] (setting [4]), under 200 nM in assay [2] and 500 to 1500 nM in assay [3].
On to `C=CC(=O)NC1CCN(C(=O)c2ccn3ncnc(Nc4ccc(Oc5ccn6ncnc6c5)c(C)c4)c23)C1` (stereo not drawn) [Example 4, N-(1-(4-((4-([1,2,4]triazolo[1,5-a]pyridin-7-yloxy)-3-methylphenyl)amino)pyrrolo[2,1-f][1,2,4]triazine-5-carbonyl)pyrrolidin-3-yl)acrylamide], for which the IC50 is under 200 nM in assay [1] (setting [4]), under 200 nM in assay [2] and 1500 to 5000 nM in assay [3].
Regarding `C=CC(=O)N1CCCC(c2ccn3ncnc(Nc4ccc(Oc5ccn6ncnc6c5)c(C)c4)c23)CC1` (stereo not drawn) [Example 9, 1-(4-(4-((4-([1,2,4]triazolo[1,5-a]pyridin-7-yloxy)-3-methylphenyl)amino)pyrrolo[2,1-f][1,2,4]triazin-5-yl)azepan-1-yl)prop-2-en-1-one], the values for the IC50 in assay [1] (setting [4]), in assay [2] and in assay [3] were under 200 nM, under 200 nM and 200 to 500 nM, respectively.
As for `C=CC(=O)N1CC2(C1)CN(c1ccn3ncnc(Nc4cnc(Oc5ccn6ncnc6c5)c(Cl)c4)c13)C2` [Example 15, 1-(6-(4-((6-([1,2,4]triazolo[1,5-a]pyridin-7-yloxy)-5-chloropyridin-3-yl)amino)pyrrolo[2,1-f][1,2,4]triazin-5-yl)-2,6-diazaspiro[3.3]heptan-2-yl)prop-2-en-1-one], the IC50 in assay [1] (setting [4]) is over 5000 nM; in assay [2], 1500 to 5000 nM; in assay [3], 1500 to 5000 nM.
As to `C=CC(=O)N1CC2(CC(c3ccn4ncnc(Nc5ccc(Oc6ccn7ncnc7c6)c(C)c5)c34)C2)C1` [Example 17, 1-(6-(4-((4-([1,2,4]triazolo[1,5-a]pyridin-7-yloxy)-3-methylphenyl)amino)pyrrolo[2,1-f][1,2,4]triazin-5-yl)-2-azaspiro[3.3]heptan-2-yl)prop-2-en-1-one], the values for the IC50 in assay [1] (setting [4]), in assay [2] and in assay [3] were under 200 nM, under 200 nM and 1500 to 5000 nM, respectively.
Turning to `C=C(C(=O)O)C(=O)N1CCC(c2ccn3ncnc(Nc4ccc(Oc5ccn6ncnc6c5)c(C)c4)c23)CC1` [Example 20, 2-(4-(4-((4-([1,2,4]triazolo[1,5-a]pyridin-7-yloxy)-3-methylphenyl)amino)pyrrolo[2,1-f][1,2,4]triazin-5-yl)piperidine-1-carbonyl)acrylic acid], the IC50 in assay [1] (setting [4]), in assay [2] and in assay [3] was 1500 to 5000 nM in each case.
As to `Cc1cc(Nc2ncnn3ccc(C4CCN(C(=O)/C=C/CN5CCN(C)CC5)CC4)c23)ccc1Oc1ccn2ncnc2c1` [Example 24, (E)-1-(4-(4-((4-([1,2,4]triazolo[1,5-a]pyridin-7-yloxy)-3-methylphenyl)amino)pyrrolo[2,1-f][1,2,4]triazin-5-yl)piperidin-1-yl)-4-(4-methylpiperazin-1-yl)but-2-en-1-one], the IC50 in assay [1] (setting [4]) was 500 to 1500 nM; in assay [2], under 200 nM; in assay [3], 1500 to 5000 nM.
On to `Cc1cc(Nc2ncnn3ccc(C4CCN(C(=O)/C=C/[C@H]5CCCN5C)CC4)c23)ccc1Oc1ccn2ncnc2c1` [Example 25, (R,E)-1-(4-(4-((4-([1,2,4]triazolo[1,5-a]pyridin-7-yloxy)-3-methylphenyl)amino)pyrrolo[2,1-][1,2,4]triazin-5-yl)piperidin-1-yl)-3-(1-methylpyrrolidin-2-yl)prop-2-en-1-one], for which the figures for the IC50 in assay [1] (setting [4]), in assay [2] and in assay [3] were under 200 nM, under 200 nM and 1500 to 5000 nM, respectively.
For `C=C(F)C(=O)N1CC=C(c2ccn3ncnc(Nc4ccc(Oc5ccn6ncnc6c5)c(C)c4)c23)CC1` [Example 26, 1-(4-(4-((4-([1,2,4]triazolo[1,5-a]pyridin-7-yloxy)-3-methylphenyl)amino)pyrrolo[2,1-f][1,2,4]triazin-5-yl)-3,6-dihydropyridin-1(2H)-yl)-2-fluoroprop-2-en-1-one], the IC50 was 1500 to 5000 nM in assay [1] (setting [4]), 200 to 500 nM in assay [2] and 1500 to 5000 nM in assay [3].
Take `C=C(C#N)C(=O)N1CCC(c2ccn3ncnc(Nc4ccc(Oc5ccn6ncnc6c5)c(C)c4)c23)CC1` [Example 27, 2-(4-(4-((4-([1,2,4]triazolo[1,5-a]pyridin-7-yloxy)-3-methylphenyl)amino)pyrrolo[2,1-f][1,2,4]triazin-5-yl)piperidine-1-carbonyl)acrylonitrile]: the IC50 in assay [1] was 1500 to 5000 nM; in assay [2], 500 to 1500 nM; in assay [3] it was 1500 to 5000 nM.
Consider `C=CC(=O)N1CC=C(c2ccn3ncnc(Nc4ccc(Oc5ccn6ncnc6c5)c(C)c4)c23)C1` [Example 28, 1-(3-(4-((4-([1,2,4]triazolo[1,5-a]pyridin-7-yloxy)-3-methylphenyl)amino)pyrrolo[2,1-f][1,2,4]triazin-5-yl)-2,5-dihydro-1H-pyrrol-1-yl)prop-2-en-1-one acetate], for which the figures for the IC50 in assay [1] (setting [4]), in assay [2] and in assay [3] were 500 to 1500 nM, under 200 nM and 1500 to 5000 nM, respectively.
Taken in the same sequence, the figures for `Cc1cc(Nc2ncnn3ccc(C4=CCN(C(=O)/C=C/CN(C)C)C4)c23)ccc1Oc1ccn2ncnc2c1` [Example 29, (E)-1-(3-(4-((4-([1,2,4]triazolo[1,5-a]pyridin-7-yloxy)-3-methylphenyl)amino)pyrrolo[2,1-f][1,2,4]triazin-5-yl)-2,5-dihydro-1H-pyrrol-1-yl)-4-(dimethylamino)but-2-en-1-one acetate] were 1500 to 5000 nM, under 200 nM and 1500 to 5000 nM.
Taken in the same sequence, the figures for `C=C(CN(C)C)C(=O)N1C2C=C(c3ccn4ncnc(Nc5ccc(Oc6ccn7ncnc7c6)c(C)c5)c34)CC1CC2` (stereo not drawn) [Example 30, 1-(3-(4-((4-([1,2,4]triazolo[1,5-a]pyridin-7-yloxy)-3-methylphenyl)amino)pyrrolo[2,1-f][1,2,4]triazin-5-yl)-8-azabicyclo[3.2.1]oct-2-en-8-yl)-2-((dimethylamino)methyl)prop-2-en-1-one acetate] were under 200 nM, under 200 nM and 1500 to 5000 nM.
On to `Cc1cc(Nc2ccn3ncnc(C4CC5CCC(C4)N5C(=O)/C=C/CN(C)C)c23)ccc1Oc1ccn2cnnc2c1` (stereo not drawn) [Example 33, (E)-1-(3-(5-((4-([1,2,4]triazolo[4,3-a]pyridin-7-yloxy)-3-methylphenyl)amino)pyrrolo[2,1-f][1,2,4]triazin-4-yl)-8-azabicyclo[3.2.1]octan-8-yl)-4-(dimethylamino)but-2-en-1-one acetate], for which the IC50 was 200 to 500 nM in assay [1] (setting [4]), under 200 nM in assay [2] and 1500 to 5000 nM in assay [3].
Taken in the same sequence, the figures for `Cc1cc(Nc2ncnn3ccc(C4CCN(C(=O)C(F)Cl)CC4)c23)ccc1Oc1ccn2ncnc2c1` (stereo not drawn) [Example 35, 1-(4-(4-((4-([1,2,4]triazolo[1,5-a]pyridin-7-yloxy)-3-methylphenyl)amino)pyrrolo[2,1-f][1,2,4]triazin-5-yl)piperidin-1-yl)-2-chloro-2-fluoroethan-1-one acetate] were under 200 nM, under 200 nM and 1500 to 5000 nM.
On the same counts, the results for `Cc1cc(Nc2ncnn3ccc(C4CCN(C(=O)C5CC(=O)N5)CC4)c23)ccc1Oc1ccn2ncnc2c1` (stereo not drawn) [Example 36, 4-(4-(4-((4-([1,2,4]triazolo[1,5-a]pyridin-7-yloxy)-3-methylphenyl)amino)pyrrolo[2,1-f][1,2,4]triazin-5-yl)piperidine-1-carbonyl)azetidin-2-one acetate] are 1500 to 5000 nM, 1500 to 5000 nM and 1500 to 5000 nM.
On the same counts, the results for `Cc1cc(Nc2ncnn3ccc(C4CN(C(=O)/C=C/CN5CCOCC5)C4)c23)ccc1Oc1ccn2ncnc2c1` [Example 37, (E)-1-(3-(4-((4-([1,2,4]triazolo[1,5-a]pyridin-7-yloxy)-3-methylphenyl)amino)pyrrolo[2,1-f][1,2,4]triazin-5-yl)azetidin-1-yl)-4-morpholinobut-2-en-1-one] are under 200 nM, under 200 nM and 1500 to 5000 nM.
For `Cc1cc(Nc2ncnn3ccc(C4CN(C(=O)/C=C/CN5CC(F)C5)C4)c23)ccc1Oc1ccn2ncnc2c1` [Example 38, (E)-1-(3-(4-((4-([1,2,4]triazolo[1,5-a]pyridin-7-yloxy)-3-methylphenyl)amino)pyrrolo[2,1-f][1,2,4]triazin-5-yl)azetidin-1-yl)-4-(3-fluoroazetidin-1-yl)but-2-en-1-one], the IC50 in assay [1] (setting [4]) is under 200 nM; in assay [2], under 200 nM; in assay [3], 1500 to 5000 nM.
`COC/C=C/C(=O)N1CC(c2ccn3ncnc(Nc4ccc(Oc5ccn6ncnc6c5)c(C)c4)c23)C1` [Example 40, (E)-1-(3-(4-((4-([1,2,4]triazolo[1,5-a]pyridin-7-yloxy)-3-methylphenyl)amino)pyrrolo[2,1-f][1,2,4]triazin-5-yl)azetidin-1-yl)-4-methoxybut-2-en-1-one]: the IC50 was in the range of 200 to 500 nM in assay [1] (setting [4]), 200 to 500 nM in assay [2] and 1500 to 5000 nM in assay [3].
Take `COC1CCN(C/C=C/C(=O)N2CC(c3ccn4ncnc(Nc5ccc(Oc6ccn7ncnc7c6)c(C)c5)c34)C2)C1` (stereo not drawn) [Example 41, (E)-1-(3-(4-((4-([1,2,4]triazolo[1,5-a]pyridin-7-yloxy)-3-methylphenyl)amino)pyrrolo[2,1-f][1,2,4]triazin-5-yl)azetidin-1-yl)-4-(3-methoxypyrrolidin-1-yl)but-2-en-1-one]: the IC50 was under 200 nM in assay [1] (setting [4]), under 200 nM in assay [2] and 1500 to 5000 nM in assay [3].

The values above are taken from patent US20250276983A1, “COMPOUNDS AND METHODS FOR MODULATING HER2” (IAMBIC THERAPEUTICS, INC., priority 2022, published 2025).
